Source: patent US20240074473A1, “METHOD FOR INDUCING HYPERTROPHIC MUSCLE FIBERS FOR INDUSTRIAL MEAT PRODUCTION” (Yeda Research and Development Co. Ltd., priority 2021, published 2024)
Counter-ions that a name gives are not always drawn. Like-named read-outs stand apart in the source and are kept apart here.

Experiments:
[1] = Risk categorization of cell culture media ingredients
Excerpt: Category 1: These cell culture media components are food ingredients/additives that are GRAS or permitted by federal regulation without limitation on use. Exemplary compounds in this category include innocuous ingredients such as sugars, pH buffers, water soluble vitamins, and common antioxidants such as tocopherols.
Category 2: These cell culture media components are common dietary nutrients and are anticipated to have GRAS status for food use or be permitted by regulation for addition to food. Examples of such compounds include most of the inorganic salts and macronutrients that are present within the cell culture media. […] Majority of nutrients present within the poultry cell-based meat may be readily measured using common validated methods for food composition testing. Batch analyses of multiple lots of the finished product may be obtained to validate the above assumptions. In some instances, consideration of established safe levels (e.g., ADI, UL) derived from a relevant authoritative body (e.g., U.S. FDA, EFSA, JECFA, FSANZ, U.S. EPA) may be leveraged to support safety. If comparisons of anticipated dietary intakes relative to an authoritative reference intake value is used, consideration of additive intakes from all dietary sources may be considered. In the absence of an authoritative reference intake value, published NOAELs from animal toxicology studies may be used to evaluate safety using standard scientific procedures for food safety evaluation. A margin of exposure (MoE) of 100-fold or greater between the NOAEL and estimated dietary intakes from food exposures is typically considered adequate to support safety. in situations where the MoE is <100-fold, additional measures for further reduction of the media component may be necessary, or further characterization of intraspecies/interspecies differences in metabolism may be necessary. These situations also require careful consideration of the regulatory status on a case-by basis (e.g., premarket approval as a food additive or GRAS evaluation required).
For example, situations where the compound is not detectable in finished product or is present at equivalent levels in comparator foods, compounds that are thermo-labile and will be digested during cooking, and/or compounds that are expected to be digested to innocuous compounds following ingestion. Examples of compounds meeting the aforementioned conditions would include recombinant growth factors and serum components. For Category 3 substances a final consideration in the safety assessment process may involve hazard characterization of the potential for a substance to produce toxic biological effects outside of the endpoints measured in a sub-chronic rat toxicity study. Substances with biological activity may require additional hazard characterization related to reproductive and developmental toxicity, or immunotoxicity. Considerations for allergenicity, biological effects in humans (e.g., effects on blood pressure), and synergistic effects with other media components also may be evaluated. […] Examples of category 3 components include recombinant proteins and animal serum.

[2] = human dietary intake, cited from earlier work; for Safe Reference Level for Human Dietary Intake: Iron UL: as iron
[3] = Maximum estimated dietary exposure to media ingredients per 100 g serving; conditions: assumption of complete transfer of media components to the finished product on a wt/wt basis
[4] = cell culture media ingredient used during meat production

Row | Compound | Risk Assessment Category [1, 4] | Maximum Estimated Exposure per 100 g serving [3] | also measured
1 | CC(=O)Oc1c(C)c(C)c2c(c1C)CCC(C)(CCCC(C)CCCC(C)CCCC(C)C)O2 (racemic) [DL-ALPHA-TOCOPHEROL ACETATE] | 1 | 8 mg | Safe Reference Level for Human Dietary Intake: UL (Tolerable Upper Limit) [2]: UL = 1000 mg/d
2 | CALCIUM D-PANTOTHENATE | – | 100 mg | Safe Reference Level for Human Dietary Intake (UL) given as symbol [2]: UL = NS
3 | Cc1ncc(C[n+]2csc(CCO)c2C)c(N)n1 [THIAMINE-HCL] | – | 18 mg | Risk Assessment Category [1]: 1; Safe Reference Level for Human Dietary Intake (UL) given as symbol [2]: UL = NS
4 | Cc1c(C)c2c(c(C)c1O)CC[C@@](C)(CCC[C@H](C)CCC[C@H](C)CCCC(C)C)O2 [D-ALPHA-TOCOPHEROL] | 1 | 1.6 mg | Safe Reference Level for Human Dietary Intake: UL (Tolerable Upper Limit) [2]: UL = 1000 mg/d
5 | CCCCCCCC/C=C\CCCCCCCC(=O)OCCOCC(OCCO)C1OCC(OCCO)C1OCCO (centres unmarked) [TWEEN 80] | 2 | 4 mg | Safe Reference Level for Human Dietary Intake: ADI (Acceptable Daily Intake) [2]: ADI = 10 mg/kg bw/d
6 | O.O.O.O.O.O.O.O=S(=O)([O-])[O-].[Zn+2] [ZINC SULFATE-7H20] | – | 15 mg | Risk Assessment Category [1]: 1; Safe Reference Level for Human Dietary Intake: UL (Tolerable Upper Limit) [2]: UL = 5 to 40 mg/day
7 | O.O.O.O.O.O.O.O=S(=O)([O-])[O-].[Fe+2] [FERROUS SULFATE-7H2O] | – | 2.5 mg | Risk Assessment Category [1]: 2; Safe Reference Level for Human Dietary Intake: Iron UL [2]: Iron UL = 40 to 45 mg
8 | FERRIC CITRATE | – | – | Safe Reference Level for Human Dietary Intake: Iron UL [2]: Iron UL = 40 to 45 mg
9 | [Cl-].[Cl-].[Mg+2] [MAGNESIUM CHLORIDE (ANHY)] | 1 | 170 mg | Safe Reference Level for Human Dietary Intake (kind of level not given) [2]: 65 to 350 mg
10 | COPPER SULFATE-PENTAHYDRATE | – | 3 mg | Safe Reference Level for Human Dietary Intake (kind of level not given) [2]: 1 to 10 mg
11 | O=S(=O)([O-])[O-].[Mg+2] [MAGNESIUM SULFATE (ANHY)] | 1 | 493 mg | Safe Reference Level for Human Dietary Intake: UL (Tolerable Upper Limit) ([2]; niacinamide and magnesium sulfate: supplements): UL = 65 to 350 mg
